Assay results: US20200129514A1, “JAK INHIBITION AS A NOVEL THERAPY FOR PREVENTING TUMORS IN PEUTZ-JEGHERS SYNDROME” (Curingenetics, LLC, priority 2018, published 2020)

Tests used:
[1] = test system: Lkb1FspKO/FspKO mice (PJS polyps); test: Ruxolitinib-containing chow treatment of Lkb1FspKO/FspKO mice, tumor burden after six weeks
Stat3 = Stat3 activation in primary epithelial crypts incubated with recombinant cytokine; format: cell-based; details: primary epithelial crypts isolated from mouse small intestine
Protocol: (§1) IL-11 signaling is mediated via its binding to the transmembrane receptor Gp130, resulting in activation of the Jak-Stat and MAPK pathways. Of these, the induction of Jak-Stat3 activation appears most critical in GI tumorigenesis. To investigate whether IL-11 is sufficient to induce Stat3 activation in isolated wild-type epithelium, we incubated primary epithelial crypts isolated from mouse small intestine with recombinant IL-11. […] Next, we addressed whether Stat3-dependent transcriptional changes observed in polyps can be induced by IL-11 in primary epithelial organoid cultures. We focused our analysis in Reg3b, Reg3g and Lrg1 genes due to their reported expression in inflammatory epithelium in a Stat3-dependent manner and overexpression in PJS model polyps (Supplemental FIG. 6D, Supplemental Table 3).

[2] = test system: Reg3b, Reg3g and Lrg1 expression; test: Induction of Stat3-dependent genes in primary epithelial organoid cultures; format: cell-based
Protocol: as §1

`N#CC[C@H](C1CCCC1)n1cc(-c2ncnc3[nH]ccc23)cn1` [ruxolitinib, Ruxolitinib] showed a tumor-free mice ([1]; ruxolitinib chow 2 g/kg, 6/11 treated mice, all non-treated mice developed polyps) of 55%, an average polyp diameter ([1]; ruxolitinib chow, 2.51 in non-treated, p=0.082, not significant) of 1.68 mm and an average tumor number ([1]; ruxolitinib chow, 6.54 in non-treated) of 1.27. It also gave an average tumor area ([1]; ruxolitinib chow, 47.4 in non-treated) of 3.58 mm2.

“IL-6: IL-6 cytokine used as comparator for Stat3 activation” was tested, and the “activation of Stat3” value (Stat3) was “comparably”.

B1: IL-11: recombinant IL-11, an IL-6 family cytokine signalling via Gp130 (protein, UniProt P20809 22-199, looked up)
Interleukin-11: PGPPPGPPRVSPDPRAELDSTVLLTRSLLADTRQLAAQLRDKFPADGDHNLDSLPTLAMSAGALGALQLPGVLTRLRADLLSYLRHVQWLRRAGGSSLKTLEPELGTLQARLDRLLRRLQLLMSRLALPQPPPDPPAPPLAPPSSAWGGIRAAHAILGGLHLTLDWAVRGLLLLKTRL
For B1, the “induction of Reg3b, Reg3g and Lrg1 expression” value [2] was “robust induction” and the “activation of Stat3” value (Stat3) was “resulted in activation of Stat3”.
